For assay [1], the target named is T1, hCAII (Homo sapiens, UniProt P00918).
T1 construct: made in house; host or cells: Escherichia coli BL21(DE3), pACA plasmid (gift from Carol A. Fierke)
Briefly: colorimetric p-nitrophenyl acetate hCAII activity assay. It is filed as biochemical. As for the experimental part:
To verify that the p-sulfamoyl benzamide MBP retained its binding following ligation with the linker and bulky recruiting group moieties, the inhibition activity of each degrader candidate was determined using a colorimetric p-nitrophenol acetate hCAII activity assay.[46] In short, recombinantly expressed hCAII was preincubated with the degrader candidate before the addition of p-nitrophenyl acetate, a substrate that upon enzymatic cleavage leads to acetic acid and p-nitrophenolate.
Recombinant hCAII was expressed and purified according to the protocol reported in the Supporting Information. […] Wells were prepared to a final volume of 100 μL per well, including buffer (50 mM HEPES, pH 8.0), enzyme (hCAII, 40 nM), inhibitor (varying concentrations), and substrate (p-nitrophenyl acetate, 500 μM). Inhibitors and protein were preincubated for 10 min at rt, and the substrate was added to the reaction mixture immediately before reading. […] The rate of absorbance for each replicate was corrected for substrate autohydrolysis and inherent inhibitor absorbance by subtracting the rate of absorbance from a blank sample lacking enzyme but containing the inhibitor and substrate. Samples lacking inhibitor but containing enzyme and substrate were used to define 100% hCAII activity. Samples lacking inhibitor and enzyme were used to define 0% hCAII activity. IC50 was determined using non-linear regression with a variable slope on the GraphPad Prism software.

Assay [2] deals with T2, hCAII (Homo sapiens, UniProt P00918+Q96SW2).
T2 construct: HEK293 cells, a line known to abundantly express hCAII; endogenous in cells; host or cells: HEK293
Briefly: time-course of hCAII abundance in HEK293 cells, western blot. The following applies: 50 nM. It is filed as cell-based. The procedure: To determine the efficiency of 11, hCAII abundance was evaluated in HEK293 cells that were dosed with 50 nM of 11 over 48 h. Depletion of hCAII relative to vehicle (DMSO) began within 2 h and reached a maximal effect by 6 h (Figure 5c). Sustained degradation was also observed for the entirety of the 48 h tested. Based on the results of this time-course dosing experiment, it appears that 11 begins degrading hCAII quickly after exposure to the cell and maintains prolonged activity after initial dosing.
After reaching 90% confluency, HEK293 cells were trypsinized, counted, and plated with 2 mL media at 2 × 10^6 cells per well on a tissue-culture-treated, 6-well plate. […] Lysates were thawed on ice, and the total protein concentration was measured using a Pierce bicinchoninic acid protein assay (Thermo Fisher Scientific, 23225). […] The immunoblot was then analyzed using the ImageJ software as an 8-bit image. The brightness and contrast of the image were adjusted, and the integrated density was calculated for each protein band using the gel lane analysis tool. Relative hCAII expression was calculated by normalizing the hCAII/β-actin ratio in compound-treated wells to the hCAII/β-actin ratio in vehicle (DMSO)-treated wells and indicated as “hCAII Abundance (% DMSO)”.

In assay [3] the target is T2, hCAII. Briefly: competition / mechanistic experiments on hCAII degradation in HEK293 cells, western blot. It is filed as cell-based. The following applies: then 50 nM for 6 h. The procedure: Competition experiments were performed to verify that the degradation activity of 11 was the result of a PROTAC-style mechanism requiring concurrent degrader engagement with both hCAII and CRBN.
After reaching 90% confluency, HEK293 cells were trypsinized, counted, and plated with 2 mL media at 2 × 10^6 cells per well on a tissue-culture-treated, 6-well plate. At the appropriate number of hours before reaching ∼90% confluency, cells were treated with DMSO solutions of the appropriate compounds (final concentration 0.5% DMSO per well). Upon reaching 90% confluency, typically 72 h, culture media were removed and the cells were washed with cold Dulbecco’s phosphate-buffered saline (DPBS). Lysis buffer, composed of cell lysis buffer (Cell Signaling Technology, 9803), protease inhibitor cocktail (Cell Signaling Technology, 5872), and 1 mM phenylmethylsulfonylfluoride, was added to each well, and the plates were rocked at 4 °C for 20 min. Cells were then scraped from the bottom of the plates, and the supernatant was collected after spinning down at 14,000g at 4 °C for 10 min and frozen at −80 °C. Lysates were thawed on ice, and the total protein concentration was measured using a Pierce bicinchoninic acid protein assay (Thermo Fisher Scientific, 23225). […] Following heating at 98 °C for 5 min and cooling to room temperature, the prepared samples were electrophoretically separated on a 4–20% TGX gel (Bio-Rad, 4568095) and transferred to a PVDF membrane (Amersham Hybond P 0.45 μm, 106000019) in a tris-glycine transfer buffer (Thermo Fisher Scientific, LC3675) with a 20% final MeOH concentration. […] The immunoblot was then analyzed using the ImageJ software as an 8-bit image. The brightness and contrast of the image were adjusted, and the integrated density was calculated for each protein band using the gel lane analysis tool. Relative hCAII expression was calculated by normalizing the hCAII/β-actin ratio in compound-treated wells to the hCAII/β-actin ratio in vehicle (DMSO)-treated wells and indicated as “hCAII Abundance (% DMSO)”.

Assay [4] addresses T2, hCAII. As to the kind of experiment: nine-point dose response hCAII degradation assay in HEK293 cells, western blot. It is filed as cell-based. As for the experimental part: Three biological replicates of HEK293 cells were dosed in parallel with 4 or 5 at concentrations ranging from 5 pM to 15 μM for 24 h prior to lysis. […] This phenomenon can be attributed to the binary complexes of degrader-POI and degrader-E3 ligase outcompeting the POI-degrader-E3 ligase ternary complex at high degrader concentrations. […] The half-maximal degradation (DC50 value reported as a 95% confidence interval) and maximum percentage of degradation (DMax) of each active degrader were determined using a least squares sigmoidal fitting of the degradation activity of dosing concentrations below the observable “hook effect” (Figure 2B).
Figure 3 Dose-dependent degradation of hCAII by 4 and 5. (A) Western blot images of HEK293 cells dosed for 24 h with degrader 4 (left) or 5 (right) at concentrations of 5 pM to 15 μM. (B) Dose response curves of hCAII abundance as a percent of DMSO vehicle for 4 (left) or 5 (right). Band intensities of blots from three biological replicates were quantified using ImageJ software (Experimental Section). Data were normalized to a vehicle-treated (DMSO) group and plotted as a sigmoidal curve. Nonlinear fitting of log([inhibitor]) vs response (three parameters) was generated for 4 with R^2 = 0.955 and 5 with R^2 = 0.855 in GraphPad Prism. Points marked with an asterisk indicate only two biological replicates. In all other cases, error bars represent the standard deviation of triplicate experiments. Full images of the western blots are provided in the Supporting Information (Figures S1 and S3).
Given the inactivity of 1–3 and increased potency of 4 over 5, a 12-atom linker appeared to be a preferred length for favorable ternary complex formation in the heterobifunctional degraders tested. To further examine the role of linker length and composition, we explored hydrocarbon linkers for their ability to improve degrader lipophilicity and membrane permeability without impacting the favorable ternary complex formation. […] Western blot analysis and quantification of three biological replicates identified the degradation of hCAII at concentrations of 11 as low as 50 pM and achieved near-complete hCAII degradation at concentrations of 5 nM (Figures 5A and S3).
After reaching 90% confluency, HEK293 cells were trypsinized, counted, and plated with 2 mL media at 2 × 10^6 cells per well on a tissue-culture-treated, 6-well plate. At the appropriate number of hours before reaching ∼90% confluency, cells were treated with DMSO solutions of the appropriate compounds (final concentration 0.5% DMSO per well). Upon reaching 90% confluency, typically 72 h, culture media were removed and the cells were washed with cold Dulbecco’s phosphate-buffered saline (DPBS). Lysis buffer, composed of cell lysis buffer (Cell Signaling Technology, 9803), protease inhibitor cocktail (Cell Signaling Technology, 5872), and 1 mM phenylmethylsulfonylfluoride, was added to each well, and the plates were rocked at 4 °C for 20 min. Cells were then scraped from the bottom of the plates, and the supernatant was collected after spinning down at 14,000g at 4 °C for 10 min and frozen at −80 °C. Lysates were thawed on ice, and the total protein concentration was measured using a Pierce bicinchoninic acid protein assay (Thermo Fisher Scientific, 23225). […] Following heating at 98 °C for 5 min and cooling to room temperature, the prepared samples were electrophoretically separated on a 4–20% TGX gel (Bio-Rad, 4568095) and transferred to a PVDF membrane (Amersham Hybond P 0.45 μm, 106000019) in a tris-glycine transfer buffer (Thermo Fisher Scientific, LC3675) with a 20% final MeOH concentration. The membrane was rocked at 4 °C with fluorescent blocking buffer (Thermo Fisher Scientific, 37565) for 1 h and then incubated with primary antibodies (hCAII Rabbit mAb, 1:1000 and β-actin Rabbit pAb, 1:2000 in fluorescent blocking buffer) at 4 °C overnight. […]

Setting [5] is: SMILES csv supplement, read-out: hCAII IC50.
Where [6] appears, read: recombinant hCAII 40 nM, p-nitrophenyl acetate 500 μM, pH 8.0, 95% confidence interval, read-out: IC50 (nM), hCAII inhibition activity (Table S1).
The mark [7] stands for this setting: enzyme concentration of 40 nM, read-out: IC50, below the detection limit of the assay.

From article PMC9969396, “Development of Human Carbonic Anhydrase II Heterobifunctional Degraders” (Journal of Medicinal Chemistry, 2023) come the findings set out here.

Read-outs that look alike come from different tables or passages of the source.

In the case of `NS(=O)(=O)c1ccc(C(=O)NCCOCCNc2cccc3c2C(=O)N(C2CCC(=O)NC2=O)C3=O)cc1` (stereo not shown) [Compound 1, N-(2-(2-((2-(2,6-Dioxopiperidin-3-yl)-1,3-dioxoisoindolin-4-yl)amino)ethoxy)ethyl)-4-sulfamoylbenzamide], the concentration for half-maximal inhibition (IC50) at hCAII [1] (setting [5]) and at hCAII [1] (setting [6]) was 48 ± 5 nM each time.

Consider `NS(=O)(=O)c1ccc(C(=O)NCCOCCOCCOCCNc2cccc3c2C(=O)N(C2CCC(=O)NC2=O)C3=O)cc1` (stereo not shown) [Compound 3, N-(2-(2-(2-(2-((2-(2,6-Dioxopiperidin-3-yl)-1,3-dioxoisoindolin-4-yl)amino)ethoxy)ethoxy)ethoxy)ethyl)-4-sulfamoylbenzamide], for which the half-inhibitory concentration (IC50) on hCAII [1] (setting [5]) and at hCAII [1] (setting [6]) was 41 ± 5 nM throughout.

With `NS(=O)(=O)c1ccc(C(=O)NCCOCCNC(=O)CC23CC4CC(CC(C4)C2)C3)cc1` [Compound 6, N-(2-(2-(2-((3r,5r,7r)-Adamantan-1-yl)acetamido)ethoxy)ethyl)-4-sulfamoylbenzamide], the concentration for half-maximal inhibition (IC50) on hCAII [1] (setting [6]) was 57 ± 5 nM.

As to `NS(=O)(=O)c1ccc(C(=O)NCCOCCOCCNC(=O)CC23CC4CC(CC(C4)C2)C3)cc1` [Compound 7, N-(2-(2-(2-(2-((3r,5r,7r)-Adamantan-1-yl)acetamido)ethoxy)ethoxy)ethyl)-4-sulfamoylbenzamide], the half-maximal inhibitory concentration (IC50) on hCAII [1] (setting [7]) and at hCAII [1] (setting [6]) was at most 20 nM in each case.

As for `NS(=O)(=O)c1ccc(C(=O)NCCOCCOCCOCCNC(=O)CC23CC4CC(CC(C4)C2)C3)cc1` [Compound 8, N-(1-((3r,5r,7r)-Adamantan-1-yl)-2-oxo-6,9,12-trioxa-3-azatetradecan-14-yl)-4-sulfamoylbenzamide], the concentration for half-maximal inhibition (IC50) at hCAII [1] (setting [5]) and on hCAII [1] (setting [6]) was 28 ± 4 nM throughout.

On to `NS(=O)(=O)c1ccc(C(=O)NCCCOCCCCOCCCNC(=O)CC23CC4CC(CC(C4)C2)C3)cc1` [Compound 9, N-(3-(4-(3-(2-((3r,5r,7r)-Adamantan-1-yl)acetamido)propoxy)butoxy)propyl)-4-sulfamoylbenzamide], for which the 50% inhibitory concentration (IC50) on hCAII [1] (setting [5]) and at hCAII [1] (setting [6]) was 35 ± 5 nM throughout.

For `NS(=O)(=O)c1ccc(C(=O)NCCCOCCOCCOCCCNC(=O)CC23CC4CC(CC(C4)C2)C3)cc1` [Compound 10, N-(1-((3r,5r,7r)-Adamantan-1-yl)-2-oxo-7,10,13-trioxa-3-azahexadecan-16-yl)-4-sulfamoylbenzamide], the IC50 at hCAII [1] (setting [7]) and on hCAII [1] (setting [6]) was at most 20 nM each time.

Consider `NS(=O)(=O)c1ccc(C(=O)NCCCCCCCCCCCCNc2cccc3c2C(=O)N(C2CCC(=O)NC2=O)C3=O)cc1` (stereo not shown) [Compound 11, N-(12-((2-(2,6-Dioxopiperidin-3-yl)-1,3-dioxoisoindolin-4-yl)amino)dodecyl)-4-sulfamoylbenzamide], for which the “time to maximal effect” value on hCAII [2] was at most 6 h. Also, the “hCAII degradation after MG132 pre-treatment” value on hCAII [3] (HEK293, 1 μM MG-132 for 1 h) is reported as “complete loss of hCAII degradation activity”. Further, at hCAII [3] (HEK293, 1 h preincubation with 5 μM acetazolamide), the “hCAII degradation after acetazolamide pre-treatment” value was “no degradation of hCAII”. Besides, at hCAII [3] (HEK293, 1 h preincubation with 5 μM lenalidomide), the “hCAII degradation after lenalidomide pre-treatment” value is “no degradation of hCAII”. Moreover, the maximal degradation (Dmax) on hCAII [4] (HEK293, HEK293 cells, 24 h, read-out: DMax (maximum percentage of degradation)) amounted to 100%. Moreover, on hCAII [4] (HEK293 cells, 24 h), the “concentration achieving near-complete hCAII degradation” value stood at 5 nM and the “degradation of hCAII at concentrations as low as” value was 50 pM. Also, the DC50 on hCAII [4] (HEK293 cells, 24 h, 5 pM to 15 μM, 95% confidence interval, read-out: DC50 (half-maximal degradation)) is 0.5 ± 0.3 nM. Besides, the “hook effect (attenuation of target degradation at high concentration)” value on hCAII [4] (HEK293 cells, 24 h, doses up to 15 μM) is “no appreciable “hook effect””. In addition, the “fold increase in activity over 4” value at hCAII [4] (from DC50 values) is on record as 10 fold.

Regarding `COCCNC(=O)c1ccc(S(N)(=O)=O)cc1` [Compound 13, N-(2-Methoxyethyl)-4-sulfamoylbenzamide], the concentration for half-maximal inhibition (IC50) at hCAII [1] (setting [5]) and on hCAII [1] (setting [6]) was 58 ± 8 nM in each case.
